Earlier results, collected in patent US20240299549A1, “STABLE FORMULATIONS OF INDOCYANINE GREEN” (PROVEPHARM LIFE SOLUTIONS, priority 2021, published 2024).

Key:
[1] = 10 hours of storage in water and direct light
[2] = stored at 4° C. in the dark, three days

CC1(C)C(/C=C/C=C/C=C/C=C2\N(CCCCS(=O)(=O)[O-])c3ccc4ccccc4c3C2(C)C)=[N+](CCCCS(=O)(=O)[O-])c2ccc3ccccc3c21.[Na+] [ICG, Indocyanine green]
reduction of absorbance at spectral peak [1]: 10% | fluorescence intensity lost [2]: 20%
